Experimental data as given in patent US12233073B2, “Skin care formulations and skin cancer treatment” (Regents of the University of Minnesota, priority 2017, dated 2025).
Where two headings read alike, the source gives them in different places.

Columns and labels:
collagen 1A = assay: Induction of collagen 1A; type: cell-based; conditions: for Rating (Collagen 1A): second rating in cell
Protocol: (§1) Higher elastin and collagen activity is indicative of anti-wrinkling or anti-aging effects. Activation of the antioxidant response element (ARE) pathway was also evaluated. The NF-E2-related factor (Nrf2) is a critical transcription factor in oxidative stress signaling. Nrf2 binds to the ARE and serves as a master regulator in cellular defense pathways. The ARE pathway mediates the transcriptional induction of a battery of genes that help to protect the cells against oxidative damage. Activation of the ARE promoter leads to more endogenous antioxidants and cell detoxification.

[1] = system: nuclear factor kappa B (NF-κB) pathway; assay: Cell-based assay of the nuclear factor kappa B (NF-κB) pathway; conditions: for Rating (inhibition of NF-κB): one rating per compound
Protocol: The effect of adding anti-aging and/or anti-wrinkling compounds to the skin care formulation of EXAMPLE 18 on nuclear factor kappa B (NF-κB) mediated-inflammation was evaluated.
A cell-based assay was performed to determine the effective of each of these compounds. The assay involved the effect of each compound on the nuclear factor kappa B (NF-κB) pathway. The inhibition of NF-κB is indicative of a protective effect against aging and wrinkling.

elastin = assay: Induction of elastin; type: cell-based; conditions: for Rating (Elastin): first rating in cell
Protocol: as §1

UV-induced ROS = assay: Inhibition of the production of UV-induced reactive oxygen species (ROS); type: cell-based; conditions: for inhibition at 10 µg/mL: read-out: % inhibition of UV-induced ROS
Protocol: The effect of the compounds of EXAMPLE 20 on inhibition of the production of reactive oxygen species (ROS), which can damage skin cells, was evaluated.

[2] = system: antioxidant response element (ARE) pathway; assay: Activation of the antioxidant response element (ARE) pathway; type: cell-based; conditions: for Rating (ARE): third rating in cell
Protocol: as §1

[3] = final dose 50 μg/ml, read-out: % inhibition of NF-κB
[4] = final dose 100 μg/ml, read-out: % inhibition of NF-κB
[5] = read-out: % inhibition of NF-κB

SMILES	fold induction at 10 µg/mL (collagen 1A; final dose 10 μg/ml)	fold induction at 50 µg/mL (collagen 1A; final dose 50 μg/ml)	fold induction at 100 µg/mL (collagen 1A; final dose 100 μg/ml)	Rating (Collagen 1A) (collagen 1A)	% inhibition of NF-κB ([1]; final dose 10 μg/ml)	inhibition at 50 µg/mL [1, 3] [%]	inhibition at 100 µg/mL [1, 4] [%]	Rating (inhibition of NF-κB) [1]	fold induction at 10 µg/mL (elastin; final dose 10 μg/ml)	fold induction at 50 µg/mL (elastin; final dose 50 μg/ml)	fold induction at 100 µg/mL (elastin; final dose 100 μg/ml)	inhibition at 10 µg/mL (UV-induced ROS; final dose 10 μg/ml) [%]	fold induction at 10 µg/mL ([2]; final dose 10 μg/ml)	fold induction at 50 µg/mL ([2]; final dose 50 μg/ml)	fold induction at 100 µg/mL ([2]; final dose 100 μg/ml)	% inhibition of NF-κB ([1]; final dose 50 μg/ml)	% inhibition of NF-κB ([1]; final dose 100 μg/ml)	Rating (Elastin) (elastin)	Rating (ARE) [2]	also measured
O=c1c(-c2ccc(O)c(O)c2)coc2cc(O)ccc12 [HI-1, 7,3,4′-trihydroxyisoflavone]	1.5	3	< 1.3	**, **, N/A (medium activity (31-55%))	none	14	40	none	1.5	2	< 1.3	> 70	< 1.3	3	5					
Oc1cc(O)c2cc(O)c(-c3cc(O)c(O)c(O)c3)[o+]c2c1 [HI-2, delphiniden]				none	none			none								none	none	none	none	Collagen 1A induction (collagen 1A; final dose 10 μg/ml): — (The dash (—) indicates <1.3x or no induction); Collagen 1A induction (collagen 1A; final dose 50 μg/ml): — (The dash (—) indicates <1.3x or no induction); Collagen 1A induction (collagen 1A; final dose 100 μg/ml): — (The dash (—) indicates <1.3x or no induction); Elastin induction (elastin; final dose 10 μg/ml): 1.5x; Elastin induction (elastin; final dose 50 μg/ml): — (The dash (—) indicates <1.3x or no induction); Elastin induction (elastin; final dose 100 μg/ml): — (The dash (—) indicates <1.3x or no induction); % inhibition of UV-induced ROS (UV-induced ROS; final dose 10 μg/ml): >70%; ARE activation ([2]; final dose 10 μg/ml): — (The dash (—) indicates <1.3x or no induction); ARE activation ([2]; final dose 50 μg/ml): — (The dash (—) indicates <1.3x or no induction); ARE activation ([2]; final dose 100 μg/ml): 1.7x
C=CCc1ccc(O)c(-c2cc(CC=C)ccc2O)c1 [HI-3, magnolol]	< 1.3	< 1.3	< 1.3	none				**** (very high activity (>76%))	< 1.3	4	2.8		< 1.3	< 1.3	< 1.3			none	none	Cytotoxicity remark in Rating column ([1]; NF-κB cell-based assay): slightly cytotoxic; inhibition at 10 µg/mL [1, 5]: > 90%; inhibition at 50 µg/mL [1, 5]: > 90%; inhibition at 100 µg/mL [1, 5]: > 90%; inhibition at 10 µg/mL (UV-induced ROS): ~10%
O=c1c(-c2ccc(O)cc2)coc2cc(O)c(O)cc12 [HI-4, 6,7,4′-trihydroxyisoflavone]	2	< 1.3	< 1.3	****, ****, **** (very high activity (>76%))	none			none	2	2	< 1.3	> 70	2	< 1.3	< 1.3	none	none		****, ****, **** (very high activity (>76%))	
O=C1C[C@@H](c2ccc(O)cc2)Oc2cc(O)cc(O)c21 [HI-5, naringenin]	< 1.3	< 1.3	1.3	* (low activity (20-30%))	none	56	62	none	1.5	< 1.3	1.5	~25	2	2	2				**** (very high activity (>76%))	
